What is called Ki is the dissociation constant of the complex between target and ligand, obtained from inhibition or displacement.

Assay [1] has as its target T1, Peroxisome proliferator-activated receptor gamma (Mus musculus) (UniProt P37238).
T1 sequence (whole entry): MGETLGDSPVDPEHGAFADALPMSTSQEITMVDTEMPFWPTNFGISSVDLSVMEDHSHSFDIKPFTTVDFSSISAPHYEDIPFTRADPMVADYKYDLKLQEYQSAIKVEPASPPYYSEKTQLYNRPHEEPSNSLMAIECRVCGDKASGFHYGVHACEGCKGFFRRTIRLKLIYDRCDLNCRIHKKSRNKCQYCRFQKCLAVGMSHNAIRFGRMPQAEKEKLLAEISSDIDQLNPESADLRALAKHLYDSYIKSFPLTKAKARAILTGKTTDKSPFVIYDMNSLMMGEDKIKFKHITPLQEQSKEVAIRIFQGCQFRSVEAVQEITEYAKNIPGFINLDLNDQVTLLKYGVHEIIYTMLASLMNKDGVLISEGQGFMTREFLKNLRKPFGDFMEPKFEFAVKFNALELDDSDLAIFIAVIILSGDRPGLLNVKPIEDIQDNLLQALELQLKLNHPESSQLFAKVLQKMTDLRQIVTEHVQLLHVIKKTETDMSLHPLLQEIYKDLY
The assay can be described thus: Binding affinity to PPARgamma in C57BL/6J mouse macrophages assessed as increase in Cpt1alpha mRNA level at 5 uM after 48 hrs by real-time PCR analysis. For orientation: Quantitative PCR measures a nucleic acid by following its amplification.

Assay [2] deals with T1, Peroxisome proliferator-activated receptor gamma (Mus musculus). Kind of assay: Binding affinity to PPARgamma in C57BL/6J mouse macrophages assessed as increase in CD36 mRNA level at 5 uM after 48 hrs by real-time PCR analysis.
The target of assay [3] is Fatty acid-binding protein, heart (Homo sapiens, UniProt P05413). Kind of assay: Displacement of […] 1-anilinonaphthalene 8-sulfonic acid from HFABP expressed in Escherichia coli BL21 (DE3) by fluorescence spectrophotometry.
Assay [4] relates to Macrophage. Kind of assay: Antiinflammatory activity in C57BL/6J mouse macrophages assessed as inhibition of LPS-stimulated TNFalpha release pretreated for 48 hrs before LPS challenge measured after 24 hrs by ELISA. The format is functional, cell-based. For orientation: In an ELISA, binding on a coated surface is turned into a signal by an enzyme label.
For assay [5], the target named is T2, Fatty acid-binding protein, adipocyte (Homo sapiens, UniProt P15090). Kind of assay: Binding affinity to AFABP in forskolin-stimulated […] C8PA cells assessed as blocked of protein interaction with hormone sensitive lipase at 1 uM after 2 to 4 hrs by FRET analysis. The format is cell-based.
Target sequence in this assay (P15090 2-132 limits assumed): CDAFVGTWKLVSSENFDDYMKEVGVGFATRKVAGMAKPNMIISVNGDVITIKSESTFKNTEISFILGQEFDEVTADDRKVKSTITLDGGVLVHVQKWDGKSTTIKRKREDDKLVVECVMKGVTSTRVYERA
Assay [6] addresses Fatty acid-binding protein 5 (Homo sapiens, UniProt Q01469). The assay can be described thus: Displacement of […] 1-anilinonaphthalene 8-sulfonic acid from EFABP expressed in Escherichia coli BL21 (DE3) by fluorescence spectrophotometry.
Assay [7] concerns Macrophage. Kind of assay: Antiinflammatory activity in C57BL/6J mouse macrophages assessed as inhibition of LPS-stimulated MCP1 release pretreated for 48 hrs before LPS challenge measured after 24 hrs by ELISA. The format is functional, cell-based.
In assay [8] the target is T1, Peroxisome proliferator-activated receptor gamma (Mus musculus). Kind of assay: Binding affinity to PPARgamma in C57BL/6J mouse macrophages assessed as increase in Cpt1alpha mRNA level at 500 nM after 48 hrs by real-time PCR analysis.
Assay [9] has as its target T3, Fatty acid-binding protein, liver (Homo sapiens, UniProt P07148).
T3 sequence (P07148 whole entry): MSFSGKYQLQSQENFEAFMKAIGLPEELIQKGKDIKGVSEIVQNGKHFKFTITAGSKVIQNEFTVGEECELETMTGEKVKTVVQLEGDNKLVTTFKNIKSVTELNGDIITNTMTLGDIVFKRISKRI
The assay can be described thus: Displacement of […] 1-anilinonaphthalene 8-sulfonic acid from LFABP expressed in Escherichia coli BL21 (DE3) by fluorescence spectrophotometry.

The target of assay [10] is T2, Fatty acid-binding protein, adipocyte. Kind of assay: Binding affinity to AFABP in forskolin-stimulated […] C8PA cells assessed as blocked of protein interaction with hormone sensitive lipase at 10 uM after 2 to 4 hrs by FRET analysis. The format is cell-based.
Target sequence in this assay (P15090 2-132 limits assumed): as the sequence (P15090 2-132 limits assumed) above
The target in assay [11] is T4, Fatty acid-binding protein, intestinal (Homo sapiens, UniProt P12104).
T4 sequence (P12104 whole entry): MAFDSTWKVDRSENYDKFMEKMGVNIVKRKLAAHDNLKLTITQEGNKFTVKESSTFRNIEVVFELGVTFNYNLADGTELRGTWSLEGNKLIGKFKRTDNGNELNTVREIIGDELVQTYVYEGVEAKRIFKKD
The assay can be described thus: Displacement of […] 1-anilinonaphthalene 8-sulfonic acid from IFABP expressed in Escherichia coli BL21 (DE3) by fluorescence spectrophotometry.

Assay [12] has as its target T1, Peroxisome proliferator-activated receptor gamma (Mus musculus). The assay can be described thus: Binding affinity to PPARgamma in C57BL/6J mouse macrophages assessed as increase in CD36 mRNA level at 500 nM after 48 hrs by real-time PCR analysis.
The target in assay [13] is T5, Peroxisome proliferator-activated receptor gamma (Homo sapiens) (UniProt P37231).
T5 sequence (whole entry): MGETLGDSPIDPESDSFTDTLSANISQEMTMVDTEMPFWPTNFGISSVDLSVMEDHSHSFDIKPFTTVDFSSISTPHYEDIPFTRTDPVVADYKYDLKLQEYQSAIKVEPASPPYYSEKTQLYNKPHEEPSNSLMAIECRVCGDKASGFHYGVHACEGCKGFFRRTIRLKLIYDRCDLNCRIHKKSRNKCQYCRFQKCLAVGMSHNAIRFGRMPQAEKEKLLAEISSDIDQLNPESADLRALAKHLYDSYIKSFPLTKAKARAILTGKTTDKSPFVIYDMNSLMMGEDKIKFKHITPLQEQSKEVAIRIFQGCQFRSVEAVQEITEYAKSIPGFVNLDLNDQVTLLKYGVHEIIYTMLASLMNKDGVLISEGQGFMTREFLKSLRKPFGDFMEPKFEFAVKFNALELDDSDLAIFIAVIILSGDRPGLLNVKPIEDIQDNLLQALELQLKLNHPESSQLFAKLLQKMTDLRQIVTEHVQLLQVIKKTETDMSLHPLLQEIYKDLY
The assay can be described thus: Activation of PPARgamma expressed in african green monkey CV1 cells at 0.5 to 25 uM after 24 hrs by luciferase reporter gene assay. The format is cell-based. The note with it: CV-1. For orientation: Reporter assays use an easily measured gene product as a stand-in for the process of interest.

Assay [14] deals with T2, Fatty acid-binding protein, adipocyte. The assay can be described thus: Binding affinity to AFABP in […] C8PA cells assessed as blocked of protein interaction with hormone sensitive lipase at 10 uM after 2 to 4 hrs by FRET analysis. The format is cell-based.
Target sequence in this assay (P15090 2-132 limits assumed): as the sequence (P15090 2-132 limits assumed) above
Assay [15] has the same target. Kind of assay: Displacement of […] 1-anilinonaphthalene 8-sulfonic acid from AFABP expressed in Escherichia coli BL21 (DE3) by fluorescence spectrophotometry.
Target sequence in this assay (P15090 whole entry): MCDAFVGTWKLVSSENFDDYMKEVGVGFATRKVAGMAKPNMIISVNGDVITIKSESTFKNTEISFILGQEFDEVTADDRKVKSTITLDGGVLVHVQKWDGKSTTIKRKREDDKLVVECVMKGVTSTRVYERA
For assay [16] the target is unchanged. The assay can be described thus: Binding affinity to AFABP in […] C8PA cells assessed as blocked of protein interaction with hormone sensitive lipase at 1 uM after 2 to 4 hrs by FRET analysis. The format is cell-based.
Target sequence in this assay (P15090 2-132 limits assumed): as the sequence (P15090 2-132 limits assumed) above
The test system of assay [17] is Macrophage. The assay can be described thus: Antiinflammatory activity in C57BL/6J mouse macrophages assessed as inhibition of LPS-stimulated IL6 release pretreated for 48 hrs before LPS challenge measured after 24 hrs by ELISA. The format is functional, cell-based.

The source made the active and inactive calls. No cut-off for these calls is given here.

Chain of Fatty acid-binding protein 5 (Q01469 whole entry): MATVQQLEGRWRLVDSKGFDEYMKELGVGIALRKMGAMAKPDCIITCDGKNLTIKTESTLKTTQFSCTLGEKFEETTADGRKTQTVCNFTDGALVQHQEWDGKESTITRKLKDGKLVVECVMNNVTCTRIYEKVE
Chain of Fatty acid-binding protein, heart (P05413 whole entry): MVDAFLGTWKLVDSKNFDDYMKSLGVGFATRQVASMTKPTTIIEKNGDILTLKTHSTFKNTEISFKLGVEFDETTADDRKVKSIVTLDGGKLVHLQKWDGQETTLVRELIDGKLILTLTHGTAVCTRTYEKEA

Take `CCCCC/C=C/C=C1/C(=O)C=C[C@@H]1C/C=C\CCCC(=O)O`: the outcome in assay [1] and in [2] was Active.

Consider `COC(=O)c1sc(-c2cccs2)cc1NC(=O)/C=C/C(=O)O`, for which the Ki stood at 9.07 µM in [3]; 3.4 µM in assay [6]; 8.17 µM in assay [9]; 6.57 µM in assay [11]; 0.67 µM in assay [15]. Moreover, the result (with Macrophage [4]; with Macrophage [7]; in assay [10]; in assay [14]; in [16]; in the assay with Macrophage [17]) was Active. The result in assay [5], in assay [8], in [12] and in assay [13] was inactive.

(Values after ChEMBL document CHEMBL1154280, “Identification and characterization of a small molecule inhibitor of Fatty Acid binding proteins” (J Med Chem, 2009).)
